The values below come from ChEMBL document CHEMBL1142753, “Bioactive fluorinated derivative of amphotericin B” (Bioorg Med Chem Lett, 2005).

One experiment concerns Aspergillus niger. As to the kind of experiment: Inhibitory effect of Amphotericin required for antifungal activity against Aspergillus niger. It counts as functional.
Experiment [1] can be described thus: Effective concentration of Amphotericin required for hemolytic activity against 1% human erythrocytes. It counts as functional.

One may read the EC50 as the concentration giving half of the maximal effect. In turn, `CC1OC(O[C@H]2/C=C/C=C/C=C/C=C/C=C/C=C/C=C/[C@H](C)[C@@H](O)[C@@H](C)[C@H](C)OC(=O)C[C@H](O)C[C@H](O)CC[C@@H](O)[C@H](O)C[C@H](O)C[C@]3(O)C[C@H](O)[C@@H](C(=O)O)[C@H](C2)O3)C(O)C(NCc2ccc(F)cc2)C1O` (stereo partly specified) displayed an Activity in the experiment on Aspergillus niger of over 50 µg. This compound gave an EC50 in experiment [1] of 2600 nM.
On the same counts, the results for `CC1OC(O[C@H]2/C=C/C=C/C=C/C=C/C=C/C=C/C=C/[C@H](C)[C@@H](O)[C@@H](C)[C@H](C)OC(=O)C[C@H](O)C[C@H](O)CC[C@@H](O)[C@H](O)C[C@H](O)C[C@@]3(O)O[C@@H](C2)[C@H](C(=O)O)[C@@H](O)[C@@H]3F)C(O)C(N)C1O` (stereo partly specified) are 10 µg and 1300 nM.
On the same counts, the results for `C[C@@H]1[C@H](O)[C@@H](C)/C=C/C=C/C=C/C=C/C=C/C=C/C=C/[C@H](O[C@@H]2O[C@H](C)[C@@H](O)[C@H](N)[C@@H]2O)C[C@@H]2O[C@](O)(C[C@@H](O)C[C@@H](O)[C@H](O)CC[C@@H](O)C[C@@H](O)CC(=O)O[C@H]1C)C[C@H](O)[C@H]2C(=O)O` [AMPHOTERICIN B] are 10 µg and 1400 nM.
